# From patent publication US10322110B2, “Imidazole-based antimicrobial agents” (priority 2014, dated 2019)
# Read-outs that look alike come from different tables or passages of the source.
# Columns and labels:
# [1] = tested on: Staphylococcus epidermidis (PCI 1200, ATCC12228); test: broth microdilution MIC assay, Staphylococcus epidermidis; format: cell-based; details: ATCC12228, read-out: Antibacterial activity SE (Staphylococcus epidermidis)
# [2] = tested on: penicillin-, erythromycin- and tetracycline-resistant Streptococcus pneumoniae (ATCC 700677), ARSP; test: microbe, parasite or virus in culture; format: cell-based
# [3] = tested on: Staphylococcus aureus MRSA (COL); test: broth microdilution MIC assay, Staphylococcus aureus MRSA (COL); format: cell-based; details: for MIC: Staphylococcus aureus, MRSA
# [4] = tested on: Human hepatocytes (HepaRG cells); test: human cytotoxicity assay in vitro (CellTiter-Glo), hepatocytes; format: cell-based; details: cytotoxicity class
# [5] = tested on: Streptococcus pneumoniae (Chester, ATCC49619); test: broth microdilution MIC assay, Streptococcus pneumoniae; format: cell-based; details: MIC100 class score, 24 h
# [6] = tested on: Staphylococcus aureus MSSA (Newman); test: broth microdilution MIC assay, Staphylococcus aureus MSSA (Newman); format: cell-based; details: for MIC: Staphylococcus aureus; for Antibacterial activity Staphylococcus aureus (MSSA): MIC100 class score, broth microdilution
# [7] = tested on: Bacillus subtilis (Marburg strain, ATCC6051); test: microbe, parasite or virus in culture; format: cell-based; details: ATCC6051, read-out: Antibacterial activity BS (Bacillus substilis)
# [8] = tested on: Mycobacterium smegmatis (mc(2)155, ATCC700084); test: broth microdilution MIC assay, Mycobacterium smegmatis; details: MIC activity class
# [9] = ATCC700677, MIC activity class, read-out: Antibacterial activity ARSP (multi-drug resistant-SP)
# [10] = read-out: Antibacterial activity MRSA (Staphylococcus aureus MRSA)
# [11] = read-out: Antibacterial activity MSSA (Staphylococcus aureus MSSA)
# [12] = MIC100 class score, broth microdilution, 24 h
# [13] = MIC100 class score, broth microdilution, 24 h, read-out: Antibacterial activity Staphylococcus aureus (MRSA)
# [14] = 24 h, read-out: Antibacterial activity Staphylococcus aureus (MSSA)
Structure (SMILES),MIC [1] [µg/mL],"MIC [2, 9] [µg/mL]","MIC [3, 10] [µg/mL]",cytotoxicity cell line H (hepatocytes) [4],Antibacterial activity Streptococcus pneumoniae [5],"MIC [6, 11] [µg/mL]",MIC [7] [µg/mL],Antibacterial activity Staphylococcus aureus (MSSA) ([6]; 24 h),"Antibacterial activity Staphylococcus aureus (MRSA) [3, 12]",Antibacterial activity MS (Mycobacterium smegmatis) [8],"MIC ([2]; ATCC700677, read-out: Antibacterial activity ARSP (multi-drug resistant-SP)) [µg/mL]","MIC [3, 13] [µg/mL]","MIC [6, 14] [µg/mL]","MIC ([3]; 24 h, read-out: Antibacterial activity Staphylococcus aureus (MRSA)) [µg/mL]"
Cc1nc(-c2ccc(-c3ccc(Cl)cc3Cl)o2)[nH]c1-c1ccc(F)cc1 [Compound 16],3 to 10,< 1,1 to 3,3,3 (MIC100 of 2-5 μg/ml),1 to 3,3 to 10,,,,,,,
"Cc1[nH]c(-c2ccc(-c3ccccc3OC(F)(F)F)o2)nc1-c1ccc(F)cc1 [Compound 23, 4-(4-Fluoro-phenyl)-5-methyl-2-[5-(2-trifluoromethoxy-phenyl)-furan-2-yl]-1H-imidazole]",20 to 50,< 1,3 to 10,3,,1 to 3,1 to 3,3 (MIC100 of 3-10 μg/ml),,,,,,
Cc1ccccc1-c1cnc(-c2ccc(-c3ccccc3C(F)(F)F)o2)[nH]1 [Compound 69],,2 to 5,,2,,11 to 201,20 to 50,3 (MIC100 of 3-10 μg/ml),2 (MIC100 of 11-201 μg/ml),2 (MIC100 of 11-201 μg/ml),,,,
Cc1[nH]c(-c2ccc(-c3ccc(Cl)cc3)s2)nc1-c1ccccc1 [Compound 6],,2 to 5,,,3 (MIC100 of 2-5 μg/ml),,11 to 201,,,2 (MIC100 of 11-201 μg/ml),,,,
Cc1[nH]c(-c2ccc(-c3ccccc3F)s2)nc1-c1ccccc1 [Compound 15],,,,,3 (MIC100 of 2-5 μg/ml),,,,,2 (MIC100 of 11-201 μg/ml),2 to 5,,,
Cc1[nH]c(-c2ccc(-c3ccc(C(F)(F)F)cc3)o2)nc1-c1ccccc1 [Compound 45],3 to 10,2 to 5,11 to 201,,,3 to 10,3 to 10,,,,,3 to 10,3 to 10,
Cc1[nH]c(-c2ccc(-c3ccc(Cl)c(C(F)(F)F)c3)o2)nc1-c1ccccc1 [Compound 39],1 to 3,2 to 5,3 to 10,,,1 to 3,3 to 10,,,,,3 to 10,3 to 10,
Cc1[nH]c(-c2ccc(-c3ccc(C(F)(F)F)cc3)o2)nc1-c1ccc(Cl)cc1 [Compound 47],3 to 10,< 1,3 to 10,,,1 to 3,3 to 10,,3 (MIC100 of 3-10 μg/ml),3 (MIC100 of 3-10 μg/ml),,,,
Cc1[nH]c(-c2ccc(-c3ccccc3OC(F)(F)F)o2)nc1-c1ccccc1 [Compound 18],3 to 10,< 1,3 to 10,2,,1 to 3,1 to 3,,,,,,1 to 3,3 to 10
Cc1nc(-c2ccc(-c3ccccc3OC(F)(F)F)o2)[nH]c1-c1cccc(Cl)c1 [Compound 21],20 to 50,< 1,,3,,1 to 3,3 to 10,3 (MIC100 of 3-10 μg/ml),3 (MIC100 of 3-10 μg/ml),,,,,
Cc1[nH]c(-c2ccc(-c3ccc(OC(F)(F)F)cc3Cl)o2)nc1-c1ccc(F)cc1 [Compound 51],20 to 50,2 to 5,20 to 50,3,3 (MIC100 of 2-5 μg/ml),11 to 201,3 to 10,2 (MIC100 of 11-201 μg/ml),,,,,,
